Values quoted from earlier work in patent publication US20250333422A1, “AMORPHOUS BERBERINE WITH ENHANCED BIOAVAILABILITY” (Nature's Way Products, LLC, priority 2024, published 2025).
Where a name gives a salt, the structure may show the parent alone.

Legend:
[1] = berberine metabolites
[2] = not given; remark: listed apart in the source

For `COc1ccc2cc3[n+](cc2c1OC)CCc1cc2c(cc1-3)OCO2` [Berberine, Berberine HCl], the “share of dose that goes into the lower bowel unabsorbed” value (oral dose) is listed as 99% and the bioavailability (standard crystalline berberine, oral) is listed as < 1%.
For `COc1ccc2cc3[n+](cc2c1O)CCc1cc2c(cc1-3)OCO2` [berberrubine], the “biological activities for antioxidative, hepatoprotective, and hypolipidemic effects” value (from here on “biological activities for antioxidative”) [1] is listed as “showed biological activities”.
In the case of `COc1ccc2cc3[n+](cc2c1OC)CCc1cc(O)c(O)cc1-3` [demethyleneberberine], the “biological activities for antioxidative” value [1] is listed as “showed biological activities”.
In the case of `COc1ccc2c(c1OC)CN1CCc3cc4c(cc3C1=C2)OCO4` [dhBB, dihydroberberine], the “bioavailability of berberine versus an oral dosage of standard berberine” value [2] is listed as 5 times.
In the case of `COc1cc2c(cc1O)CC[n+]1cc3c(OC)c(OC)ccc3cc1-2` [jatrorrhizine], the “biological activities for antioxidative” value [1] is given as “showed biological activities”.
For `COc1c(O)ccc2cc3[n+](cc12)CCc1cc2c(cc1-3)OCO2` [thalifendine], the “biological activities for antioxidative” value [1] is given as “showed biological activities”.
